Laboratory results taken from paper PMC4513902, “Evaluation of a new radiolabeled bombesin derivative with ^99mTc as potential targeted tumor imaging agent” (Journal of Radioanalytical and Nuclear Chemistry, 2013).
Read-outs that look alike come from different tables or passages of the source.

Tests used:
[1] = system: human GRP receptor cell line PC-3; conditions: after 4 h in PC-3; previous compound; cited from earlier work
Description: Compare with our pervious compound [^99mTc-tricine-HYNIC^0-D-Tyr^6-D-Trp^8]

[2] = Radiochemical stability post labeling at room temperature; format: physicochemical
[3] = system: human GRP receptor cell line PC-3; experiment: Internalization assay in PC-3 cells; format: cell-based; conditions: 1 million cells per well, about 150 kBq (2.5 pmol total peptide) per well, acid resistant fraction, gamma counter
Method: The human androgen-independent prostate carcinoma cell line PC-3 was obtained from National Cell Bank of Iran (NCBI) affiliated to Pasteur Institute of Iran. The cells were grown in DMEM supplemented with 10 % (v/v) fetal bovine serum (FBS), 1 % L-glutamine (2 mM),1 % penicillin(100 IU/ml)/streptomycin(100 μg/ml) and 1 % amphotericin B(0.25 μg/ml). The cells were incubated at 37 °C in a humidified atmosphere containing 5 % CO2 and were subcultured weekly detaching with trypsin/EDTA solution (0.25 %).
Medium was removed from the 6-well plates contain PC-3 cells with density of 1 million cells per well and cells were washed once with 2 ml of internalization medium (DMEM with 1 % FBS). Furthermore, 1.5 ml internalization medium was added to each well, and the plates were incubated at 37 °C for about 1 h. Afterwards, about 150 kBq (2.5 pmol total peptide mass per well) was added to the medium, and the cells were incubated at 37 °C for various time periods. To determine nonspecific internalization, we incubated cells with the radioligand in the presence of 150 μl, 1 μmol/l Bombesin. The cellular uptake was stopped at appropriate time periods (30 min, 1 h, 2 h and 4 h) by removing medium from the cells and washing twice with 1 ml of ice-cold phosphate-buffered saline (PBS). […] The culture medium, the receptor-bound and internalized fractions were measured radiometrically in a gamma counter.

[4] = Biodistribution in nude mice bearing PC-3 tumors; format: in vivo, mouse
Method: Animal experiments were performed in compliance with the regulations of our institution and with generally accepted guidelines governing such a work. A suspension of human PC-3 cells (1 × 10^7) in PBS buffer was subcutaneously injected in the right flank of each nude mouse. Seven to 10 days after inoculation, the tumors were inducted and then an activity of 20 MBq (0.35 nmol) of ^99mTc-Bombesin was injected via the femoral vein. In order to determine the non-specific uptake of the radiopeptides, in receptor-positive organs, a group of 3 animals were injected with 100 μg cold peptide in 50 μl saline as a co-injection with the radiopeptides (blocked animals). After 1, 4 and 24 h, the mice in groups of 3 animals were scarified, organs of interest were collected, weighed and radioactivity was measured in a gamma counter. The percentage of the injected dose per gram (% ID/g) was calculated for each tissue.

Human serum stability = format: in vitro ADME
Method: To 1 mL of freshly prepared human serum, we added 100 μl (14.8–29.6 MBq) radiolabeled BB derivative and mixture was incubated at 37 °C. 100 μl aliquots was removed and treated with 200 μl of ethanol at different times up to 24 h. Sample was centrifuged at 3,000 rpm for 15 min to precipitate serum proteins. The supernatant was filtered through a 0.20 μm pore filter and analyzed with RP-HPLC Gradient I to determine radiochemical stability.

PC-3 tumor cell = experiment: Efflux of radiopeptide from PC-3 tumor cells; format: cell-based, human; conditions: after 4 h
[5] = 1 h after injection, nude mice with PC-3 tumor, 20 MBq (0.35 nmol) via femoral vein, n = 3
[6] = 4 h, unblocked vs. blocked mice, P < 0.05

Row | Substance | internalization into PC-3 cells [1] | time stable post labeling (radiochemical stability) [2] | internalization into PC-3 cells ([3]; 0.5 h incubation at 37 °C, mean ± SD) | internalization into PC-3 cells ([3]; 1 h incubation at 37 °C, three independent experiments with triplicates) | uptake in PC-3 tumor [4, 5] | uptake in pancreas [4, 5] | Reduction of uptake in pancreas by blocking with cold peptide [4, 6] | Reduction of uptake in tumor by blocking with cold peptide [4, 6] | radiochemical purity remaining in human serum (Human serum stability; after 24 h in freshly prepared human serum, 37 °C, 100 μl (14.8–29.6 MBq) in 1 mL serum, ethanol precipitation, RP-HPLC Gradient I) | time of good stability in human serum (Human serum stability; human serum at 37 °C, no significant impurities detected by HPLC) | efflux rate of radiopeptide from PC-3 tumor cell (PC-3 tumor cell)
1 | [^99mTc-tricine-HYNIC^0-D-Tyr^6-D-Trp^8] BB (6–14) | 10.7 ± 1.2% |  |  |  |  |  |  |  |  |  | 
2 | [^99mTc/tricine/HYNIC^0, D-Tyr^5-D-Tyr^6-D-Phe^13] Bombesin (5–14) NH2 [new bombesin derivative labeled with ^99mTc via HYNIC and tricine as a coligand] |  | ≥ 24 h | 2.3 ± 0.9% | 5.3 ± 1.1% | 2.11 ± 0.18 % ID/g | 1.78 ± 0.09 % ID/g | 76% | 82% | > 90% | at least 24 h | acceptable intercellular trapping
